Measured values reported in the supplement of paper PMC10307832.

Legend:
Experiment in all cases: relative viability (nuclei count vs DMSO), 5 days (fraction); higher = more cells survive
[1] = compound: O=c1[nH]cc(F)c(=O)[nH]1 [5-Fluorouracil] + O=C(CCCCCCC(=O)Nc1ccccc1)NO [Vorinostat] (partner 1 µM)
How it was run: (§1)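 Lung cancer cell lines, seeded in 1536-well plates, were treated the following day by pin tool with a single drug or with five library-drug doses (not always all listed) in √10 steps on top of a fixed anchor-drug dose. Cells were fixed and nuclei stained in one step after 5 days, and nuclei were counted. Relative viability is the nuclei count for treated wells divided by that for vehicle wells, reported as medians of duplicate plates.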

Sulindac + Tozasertib = compound: CC1=C(CC(=O)O)c2cc(F)ccc2/C1=C\c1ccc([S+](C)[O-])cc1 [Sulindac] + Cc1cc(Nc2cc(N3CCN(C)CC3)nc(Sc3ccc(NC(=O)C4CC4)cc3)n2)n[nH]1 [Tozasertib] (partner 0.1 µM)
How it was run: as §1

Staurosporine + OSI-027 = compound: CN[C@@H]1C[C@H]2O[C@@](C)([C@@H]1OC)n1c3ccccc3c3c4c(c5c6ccccc6n2c5c31)C(=O)NC4 [Staurosporine] + COc1cccc2cc(-c3nc([C@H]4CC[C@H](C(=O)O)CC4)n4ncnc(N)c34)[nH]c12 [OSI-027] (partner 0.5 µM)
How it was run: as §1

[2] = compound: O=c1[nH]cc(F)c(=O)[nH]1 [5-Fluorouracil] + CS(=O)(=O)N1CCN(Cc2cc3nc(-c4cccc5[nH]ncc45)nc(N4CCOCC4)c3s2)CC1 [Pictilisib] (partner 1 µM)
How it was run: as §1

Cell Line | relative viability ([1]; first compound 0.02 µM) | relative viability ([1]; first compound 0.2 µM) | relative viability ([1]; first compound 0.6325 µM) | relative viability ([1]; first compound 2 µM) | relative viability (Sulindac + Tozasertib; first compound 0.08 µM) | relative viability (Sulindac + Tozasertib; first compound 0.253 µM) | relative viability (Sulindac + Tozasertib; first compound 0.8 µM) | relative viability (Sulindac + Tozasertib; first compound 2.53 µM) | relative viability (Sulindac + Tozasertib; first compound 8 µM) | relative viability (Staurosporine + OSI-027; first compound 0.005 µM) | relative viability (Staurosporine + OSI-027; first compound 0.01581 µM) | relative viability (Staurosporine + OSI-027; first compound 0.05 µM) | relative viability (Staurosporine + OSI-027; first compound 0.1581 µM) | relative viability (Staurosporine + OSI-027; first compound 0.5 µM) | relative viability ([2]; first compound 0.02 µM) | relative viability ([2]; first compound 0.2 µM) | relative viability ([2]; first compound 0.6325 µM) | relative viability ([2]; first compound 2 µM)
LU99A | 0.497 | 0.479 | 0.44 | 0.302 | 0.265 | 0.266 | 0.285 | 0.252 | 0.286 | 0.224 | 0.164 | 0.229 | 0.155 | 0.144 | 0.289 | 0.314 | 0.317 | 0.261
LXF-289 | 0.708 | 0.67 | 0.383 | 0.309 | 0.176 | 0.167 | 0.195 | 0.176 | 0.205 | 0.215 | 0.0608 | 0.116 | 0.0713 | 0.051 | 0.787 | 0.689 | 0.421 | 0.295
NCI-H23 | 0.512 | 0.582 | 0.307 | 0.21 | 0.292 | – | 0.323 | 0.354 | 0.535 | 0.518 | – | 0.248 | 0.16 | 0.0998 | 0.565 | 0.53 | 0.374 | 0.251
NCI-H322M | 0.932 | 0.917 | 0.787 | 0.757 | 0.483 | 0.485 | 0.47 | 0.51 | 0.499 | 0.619 | 0.309 | 0.292 | 0.294 | 0.235 | 0.564 | 0.536 | 0.529 | 0.427
NCI-H358 | 0.837 | 0.664 | 0.529 | 0.192 | 0.112 | 0.0982 | 0.104 | 0.0899 | 0.102 | 0.809 | 0.157 | 0.0851 | 0.0615 | 0.0427 | 0.337 | 0.354 | 0.337 | 0.294
NCI-H441 | 0.862 | 0.581 | 0.327 | – | 0.763 | 0.773 | 0.593 | 0.725 | 0.667 | 0.368 | 0.188 | 0.175 | 0.176 | 0.137 | 0.453 | 0.442 | 0.35 | 0.243
NCI-H460 | 0.903 | 0.222 | 0.082 | 0.0565 | 0.639 | 0.439 | 0.667 | 0.46 | 0.314 | 0.47 | 0.303 | 0.329 | 0.0118 | 0.006 | 0.443 | 0.384 | 0.155 | 0.0868
NCI-H520 | 0.673 | 0.681 | 0.528 | 0.394 | 0.431 | 0.4 | 0.435 | 0.437 | 0.48 | 0.294 | 0.319 | 0.274 | 0.268 | 0.141 | 0.316 | 0.272 | 0.271 | 0.232
NCI-H596 | 0.668 | 0.553 | 0.397 | 0.384 | 0.877 | 0.939 | 0.913 | 0.946 | 1 | 0.798 | 0.285 | 0.439 | 0.179 | 0.135 | 0.47 | 0.375 | 0.365 | 0.365
NCI-H647 | 0.432 | 0.593 | 0.48 | 0.187 | 0.35 | 0.364 | 0.481 | 0.566 | 0.448 | 0.29 | 0.123 | 0.149 | 0.0899 | 0.0651 | 0.473 | 0.483 | 0.429 | 0.401
NCI-H650 | 0.414 | 0.309 | 0.264 | 0.251 | 0.76 | 0.744 | 0.71 | 0.607 | 0.757 | 0.34 | 0.271 | 0.257 | 0.277 | 0.255 | 0.823 | 0.674 | 0.45 | 0.387
NCI-H661 | 0.835 | 0.818 | 0.786 | 0.809 | 0.351 | 0.336 | 0.362 | 0.362 | 0.38 | 0.641 | 0.413 | 0.346 | 0.201 | 0.166 | 0.35 | 0.469 | 0.376 | 0.433
NCI-H727 | 0.953 | 1.14 | 1 | 0.902 | 0.609 | 1.78 | – | 0.451 | 0.795 | 0.422 | 0.289 | 0.301 | 0.291 | 0.225 | 0.395 | 0.464 | 0.369 | 0.305
NCI-H838 | 0.716 | 0.637 | 0.404 | 0.266 | 0.283 | 0.269 | 0.253 | 0.248 | 0.218 | 0.207 | 0.153 | 0.196 | 0.162 | – | 0.414 | 0.402 | 0.306 | 0.269
NCI-H1355 | 0.625 | 0.49 | 0.264 | 0.243 | 0.544 | 0.607 | – | 0.502 | 0.57 | 0.332 | 0.15 | 0.192 | 0.157 | 0.143 | 0.482 | 0.493 | 0.361 | 0.33
NCI-H1395 | 0.728 | 0.755 | 0.645 | 0.756 | 0.694 | 0.732 | 0.776 | 0.733 | 0.866 | 0.605 | 0.395 | 0.42 | 0.249 | 0.239 | 0.581 | 0.62 | 0.578 | 0.594
NCI-H1437 | 0.441 | 0.301 | 0.252 | 0.253 | 0.438 | 0.434 | 0.32 | 0.397 | 0.429 | 0.744 | – | 0.587 | 0.183 | 0.181 | – | 0.183 | 0.116 | 0.1
NCI-H1650 | 0.552 | 0.386 | 0.329 | 0.198 | 0.456 | 0.381 | – | 0.287 | 0.426 | 0.357 | 0.187 | 0.142 | 0.168 | – | 0.587 | 0.537 | 0.428 | 0.306
